From patent publication EP1379634B1 (THE UNIVERSITY OF GEORGIA RESEARCH FOUNDATION, INC., priority 2001, dated 2002) come the findings set out here.

Residues, ends and D or L forms follow the SMILES beside them. *: point of attachment. AFC = O=c1cc(C(F)(F)F)c2ccc(N*)cc2o1; Cbz = O=C(OCc1ccccc1)*; CH2F = FC*

The % inhibition is the drop in the measured response relative to a control, in per cent. Higher therefore signals a strong effect.

One data set concerns Trypsin. Kind of data set: Selectivity test (Steps VI and IX), Trypsin. The data set is classed as biochemical, human. The following applies: pH 8.0, substrate Z-R-AFC. On the procedure:
(§1) In order to perform the assay, the vehicle (for Step VI) or inhibitor (for Step IX) were incubated with the appropriate substrate in the correct assay buffer and allowed to equilibrate. Subsequently, the protease was added, and the assay was allowed to incubate for an appropriate time. The concentrations used in this experiment were as follows: Vehicle was set up at 4 X 10^-5 M in final assay buffer; Inhibitor was set up at 3 X 10^-10 M in the final assay buffer. Preferably the dosages employed should be the minimal amount of vehicle or inhibitor necessary to induce inhibition. […] Substrates were set up based upon the preferred substrate for cleavage of the particular enzyme.
(§2) Positive controls were set up similarly as described for test controls, except that a solvent blank was added in substitution for the inhibitor or vehicle (in a volume equal to the volume of inhibitor or vehicle addition). All of the inhibitors and vehicles could be dissolved in dimethylsulfoxide (DMSO), and therefore, this was the solvent of choice. Negative controls were set up by adding the inhibitor or vehicle and the preferred substrates in a tube without the protease. All potential non-proteolytic liberation of AFC was therefore controlled for in this tube.
(§3) All controls were set up in triplicate, and experiments were repeated a minimum of five times.
(§4) Percent inhibition was calculated as: %Inhibition = ((AFC positive for "SI"−AFC negative for "SI")−(AFC test−AFC negative for "SI"))/(AFC positive for "SI"−AFC negative for "SI") × 100 [formula]
(§5) In this preliminary test, we employed the following human-derived enzymes (with indicated mechanistic class in parentheses): Cathepsin B (cysteine), Cathepsin L (cysteine), Cathepsin H (cysteine), Cathepsin D (aspartic), Trypsin (serine), the purified Taenia solium cysteine protease, and the Taenia solium crude mix. Cathepsin B was prepared in an assay buffer of 10 mM L-cysteine in 0.4 M Citrate buffer, pH 6.1, using Z-ARR-AFC as the cleavage substrate. Cathepsin L was prepared in an assay buffer of 10 mM L-cysteine in 0.4 M Citrate buffer, pH 5.5, using Z-FR-AFC as the cleavage substrate. Cathepsin H was prepared in an assay buffer of 10 mM L-cysteine in 0.15 M PBS buffer, pH 6.8, using L-R-AFC as the cleavage substrate. Cathepsin D was prepared in an assay buffer of 0.15 M PBS, pH 7.1, using Z-RGFFP-AFC as the cleavage substrate. Trypsin was prepared in an assay buffer of 0.15 M PBS, pH 8.0, supplemented with 100 mM CaCl2 and with Z-R-AFC as the cleavage substrate. Enzyme was incubated so that it was at least 50 times less than the concentration of substrate in order to insure saturating conditions.

Data set [1] concerns purified Taenia solium cysteine protease. Kind of data set: Competitor assay of low Vmax substrates (vehicles) against high Vmax substrate cocktails (Step III), purified protease. To be noted: for inhibition with the 1.4% cocktail: 1.4% cocktail (Z-FR-AFC 1X10^-6 M); for inhibition with the final cocktail (7.4%): 7.4% cocktail (five high Vmax substrates, 1X10^-6 M each); for Ki of vehicle: Dixon plot, data not shown. The format is biochemical. The method, then: The top 1.4% of substrates (out of 67) in the full panel of substrates with the highest Vmax values were chosen to compose a "TOP 1.4% cocktail". (We employed "Vmax" here although Kcat could also be used). Due to the lower number of substrates, a percentage was not chosen for the "BOTTOM %" substrates. Alternately, all substrates which were not cleaved as determined by a value of 10 uM/hr or less, were chosen to be tested in this step for competitive ability. Hereinafter the term "vehicle" will represent low Vmax substrates that were capable of inhibiting cleavage of the percent cocktails. In this instance, we tested for "vehicles" which inhibited cleavage of the TOP 1.4% cocktail (they were delivered into the active site). Based upon our results from Step II, the top 1.4% cocktail was composed of Z-Phe-Arg-AFC, the highest cleaved substrate.
The experiment began with a competitor test between the noncleaved low Vmax substrates and the highest Vmax substrate, Z-Phe-Arg-AFC. Concentrations were varied between the low Vmax substrate and Z-Phe-Arg-AFC, as described above under "refinement of assay" until a relative inhibition profile was obtained.
The mixture was allowed to equilibrate for a period of 30 minutes. Finally, active purified enzyme was added to the tubes at a concentration that was always 50 times less than the concentration of the high and low Vmax substrates, respectively, in order to insure saturation conditions. This concentration varied from purification to purification and the amount added depended upon the yield and specific activity of the purified protease.
Positive controls were set up in a manner similar to that described for test controls, except that solvent was added in substitution for the low Vmax substrate (in a volume equal to the low Vmax volume addition). All of the substrates could be dissolved in dimethylsulfoxide (DMSO), and therefore, this was the solvent of choice. Negative controls were set up by adding the low Vmax and the high Vmax substrate in a tube without the protease. All potential non-proteolytic induced liberation of AFC was therefore controlled for in this tube (a feature which also monitored stability of the AFC substrates, since these substrates will freely liberate AFC when unstable). A tube set was established for this negative control.
All controls were set up in triplicate, and experiments were repeated a minimum of five times. The assays were incubated at 37°C, for 18 hours overnight.
Percent inhibition was calculated as: %Inhibition = ((AFC positive for "Y"−AFC negative for "Y")−(AFC test−AFC negative for "Y"))/(AFC positive for "Y"−AFC negative for "Y") × 100 [formula]
A 2.9% cocktail of the high Vmax substrates was made. This was composed of Z-FR-AFC and the second most cleaved substrate, Z-FAR-AFC. The vehicles promoted from the initial screenings above were again tested for competitive inhibition ability with the new cocktails. Their concentrations were set identically to those which were "fixed" in the previous protocols. In other words, 8X10^-6 M of the vehicle was added to the culture tube with 1X10^-6 M of Z-FR-AFC and 1X10^-6 M of Z-FAR-AFC. Active protease was added last at a concentration that was 50 times less than the concentration of the high Vmax substrate (to ensure saturating conditions).
In similar experimental fashion, a 4.4%, 5.9%, and 7.4% cocktail were tested with each of the promising vehicles. Each increase in the percentage represented an increase by an additional high Vmax substrate. Each of the individual components in the cocktail were added at 1X10^-6 M each, to 8X10^-6 M of the vehicle. The composition of the cocktails was as follows: 4.4% cocktail: Z-FR-AFC, Z-FAR-AFC, and Z-AAK-AFC (third highest cleaved substrate); 5.9% cocktail: Z-FR-AFC, Z-FAR-AFC, Z-AAK-AFC, and AP-AFC (fourth highest cleaved substrate); 7.4% cocktail: […], Z-FAR-AFC, Z-AAK-AFC, AP-AFC, and Z-VLR-AFC. […]

The target of the next data set is Cathepsin L (Homo sapiens, UniProt P07711). As to the kind of experiment: Selectivity test (Steps VI and IX), Cathepsin L. The format is biochemical. To be noted: pH 5.5, substrate Z-FR-AFC. On the procedure: as §1, §2, §3, §4, §5
Cathepsin L, sequence (P07711 114-333): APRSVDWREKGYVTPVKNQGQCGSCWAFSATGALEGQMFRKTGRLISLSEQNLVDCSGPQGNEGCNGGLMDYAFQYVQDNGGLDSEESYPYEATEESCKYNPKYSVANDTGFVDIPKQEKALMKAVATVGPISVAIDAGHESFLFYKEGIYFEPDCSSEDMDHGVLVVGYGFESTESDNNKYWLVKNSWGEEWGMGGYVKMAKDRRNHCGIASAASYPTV
Data set [2] deals with normal BALB/c mouse splenocytes. As to the kind of experiment: Splenocyte proliferation (3H-thymidine incorporation) with or without Con-A. The format is cell-based.
The mark [3] stands for this setting: inhibitor 3 X 10^-10 M, 0.0003 µM.

Turning to `CC(C)C[C@H](NC(=O)OCc1ccccc1)C(=O)N[C@@H](CC(C)C)C(=O)N[C@@H](CC(C)C)C(=O)Nc1ccc2c(C(F)(F)F)cc(=O)oc2c1` [Z-LLL-AFC, Z-Leu-Leu-Leu-AFC] (Cbz-Leu-Leu-Leu-{AFC}), the “% inhibition” value in the data set on Trypsin (vehicle 4 X 10^-5 M, 40 µM) turned out to be 0%. For the same molecule, in data set [1] (vehicle 8X10^-6 M), the “inhibition with the 1.4% cocktail” value is “greater than 20%” and the “inhibition with the final cocktail (7.4%)” value (“inhibition … (7.4%)” for short) is no less than 50%. For the same molecule, the Ki of vehicle entry in data set [1] is recorded as “low Ki value”.

With `CC(C)C[C@H](NC(=O)OCc1ccccc1)C(=O)N[C@@H](CC(C)C)C(=O)N[C@@H](Cc1ccc(O)cc1)C(=O)Nc1ccc2c(C(F)(F)F)cc(=O)oc2c1` [Z-LLY-AFC, Z-Leu-Leu-Tyr-AFC] (Cbz-Leu-Leu-Tyr-{AFC}), the “% inhibition” value in the data set with Trypsin (vehicle 4 X 10^-5 M, 40 µM) was 0%. Moreover, in data set [1] (vehicle 8X10^-6 M), the “inhibition with the 1.4% cocktail” value is “greater than 20%” and the “inhibition … (7.4%)” value is given as no less than 50%. Moreover, in data set [1], the Ki of vehicle entry is “low Ki value”.

Take `CC(C)C[C@H](NC(=O)OCc1ccccc1)C(=O)N[C@@H](CC(C)C)C(=O)N[C@@H](Cc1ccc(O)cc1)C(=O)CF` [Z-LLY-FMK, Z-Leu-Leu-Tyr-FMK] (Cbz-Leu-Leu-Tyr-CH2F): the “% inhibition” value is reported as 0% with Trypsin (setting [3]) and “did not inhibit cathepsin L at all” at Cathepsin L (setting [3]). In addition, in data set [2] (inhibitor alone), the “proliferative response (3H-thymidine incorporation)” value is “do not induce a proliferative response”. In data set [2] (preliminary results), the “toxicity to splenocytes in vitro” value is given as “nontoxic”.

Regarding Mu-Leu-Tyr-AFC [Mu-LY-AFC], the “% inhibition” value with Trypsin (vehicle 4 X 10^-5 M, 40 µM) is listed as 0%; on Cathepsin L (vehicle 4 X 10^-5 M) it was 25%; at Cathepsin L (vehicle 4 X 10^-5 M, 40 µM) it was “subtle inhibition”. For the same molecule, the “inhibition … (7.4%)” value in data set [1] (vehicle 8X10^-6 M) is no less than 50%. For the same molecule, the Ki of vehicle result in data set [1] is “low Ki value”. Further, the “V Value” in data set [1] (V = P * M, P inhibition with first (1.4%) cocktail, M with last (7.4%) cocktail, vehicle 8X10^-6 M, each cocktail substrate 1X10^-6 M) came to 0.450.
